“And” between values parts separate entries of the source, which are not always exact repeats. Equal entries are not always repeated. Toxic doses and inconclusive results are not listed.
System: L1210 leukemia ip in BDF1 mice, survival T/C
Assay: NCI In Vivo Anticancer Drug Screen. Data for tumor model L1210 Leukemia (intraperitoneal) in B6D2F1 (BDF1) mice
Conditions: higher = longer survival
In short: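 Transplantable tumor model; survival measured in treated vs vehicle control mice. Value = treated/control.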

[1] = endpoint: mean survival time, dose: 100.0 mg/kg/injection, schedule: Q01DX009 (ip), vehicle: saline
[2] = endpoint: mean survival time, dose: 200.0 mg/kg/injection, schedule: Q01DX009 (ip), vehicle: saline
[3] = endpoint: mean survival time, dose: 400.0 mg/kg/injection, schedule: Q01DX009 (ip), vehicle: saline
[4] = endpoint: mean survival time, dose: 50.0 mg/kg/injection, schedule: Q01DX009 (ip), vehicle: Klucel (hydroxypropylcellulose) (HPC)
[5] = endpoint: mean survival time, dose: 100.0 mg/kg/injection, schedule: Q01DX001 (ip), vehicle: Klucel (hydroxypropylcellulose) (HPC)
[6] = endpoint: mean survival time, dose: 200.0 mg/kg/injection, schedule: Q01DX001 (ip), vehicle: Klucel (hydroxypropylcellulose) (HPC)
[7] = endpoint: mean survival time, dose: 400.0 mg/kg/injection, schedule: Q01DX001 (ip), vehicle: Klucel (hydroxypropylcellulose) (HPC)
[8] = endpoint: mean survival time, dose: 100.0 mg/kg/injection, schedule: Q04DX003 (ip), vehicle: saline with Tween-80
[9] = endpoint: mean survival time, dose: 200.0 mg/kg/injection, schedule: Q04DX003 (ip), vehicle: saline with Tween-80
[10] = endpoint: mean survival time, dose: 400.0 mg/kg/injection, schedule: Q04DX003 (ip), vehicle: saline with Tween-80
[11] = endpoint: mean survival time, dose: 100.0 mg/kg/injection, schedule: Q01DX001 (ip), vehicle: saline
[12] = endpoint: mean survival time, dose: 200.0 mg/kg/injection, schedule: Q01DX001 (ip), vehicle: saline
[13] = endpoint: mean survival time, dose: 400.0 mg/kg/injection, schedule: Q01DX001 (ip), vehicle: saline

## Clc1ccc(SCN2CCCCC2)cc1
endpoint: mean survival time, dose: 25.0 mg/kg/injection, schedule: Q04DX003 (ip), vehicle: Klucel (hydroxypropylcellulose) (HPC)
  T/C: 93 % of control
endpoint: mean survival time, dose: 50.0 mg/kg/injection, schedule: Q04DX003 (ip), vehicle: Klucel (hydroxypropylcellulose) (HPC)
  T/C: 95 % of control
endpoint: mean survival time, dose: 100.0 mg/kg/injection, schedule: Q04DX003 (ip), vehicle: Klucel (hydroxypropylcellulose) (HPC)
  T/C: 93 % of control and 95 % of control

## CCOCCC(O)CC (configuration not stated)
[1]
  T/C: 98 % of control
endpoint: mean survival time, dose: 100.0 mg/kg/injection, schedule: Q04DX003 (ip), vehicle: saline
  T/C: 90 % of control
[2]
  T/C: 98 % of control
endpoint: mean survival time, dose: 200.0 mg/kg/injection, schedule: Q04DX003 (ip), vehicle: saline
  T/C: 88 % of control
[3]
  T/C: 98 % of control
endpoint: mean survival time, dose: 400.0 mg/kg/injection, schedule: Q04DX003 (ip), vehicle: saline
  T/C: 89 % of control

## Nc1cc2nc3ccccc3sc-2cc1=O
endpoint: median survival time, dose: 50.0 mg/kg/injection, schedule: Q01DX001 (ip), vehicle: Klucel (hydroxypropylcellulose) (HPC)
  T/C: 100 % of control
endpoint: median survival time, dose: 50.0 mg/kg/injection, schedule: Q01DX001 (oral), vehicle: Klucel (hydroxypropylcellulose) (HPC)
  T/C: 105 % of control
endpoint: median survival time, dose: 50.0 mg/kg/injection, schedule: Q01DX009 (ip), vehicle: Klucel (hydroxypropylcellulose) (HPC)
  T/C: 102 % of control
endpoint: median survival time, dose: 50.0 mg/kg/injection, schedule: Q01DX009 (oral), vehicle: Klucel (hydroxypropylcellulose) (HPC)
  T/C: 114 % of control
endpoint: median survival time, dose: 50.0 mg/kg/injection, schedule: Q04DX003 (ip), vehicle: Klucel (hydroxypropylcellulose) (HPC)
  T/C: 101 % of control
endpoint: median survival time, dose: 100.0 mg/kg/injection, schedule: Q01DX001 (ip), vehicle: Klucel (hydroxypropylcellulose) (HPC)
  T/C: 93 % of control
endpoint: median survival time, dose: 100.0 mg/kg/injection, schedule: Q01DX001 (oral), vehicle: Klucel (hydroxypropylcellulose) (HPC)
  T/C: 105 % of control
endpoint: median survival time, dose: 100.0 mg/kg/injection, schedule: Q01DX009 (ip), vehicle: Klucel (hydroxypropylcellulose) (HPC)
  T/C: 97 % of control
endpoint: median survival time, dose: 100.0 mg/kg/injection, schedule: Q01DX009 (oral), vehicle: Klucel (hydroxypropylcellulose) (HPC)
  T/C: 114 % of control
endpoint: median survival time, dose: 100.0 mg/kg/injection, schedule: Q04DX003 (ip), vehicle: Klucel (hydroxypropylcellulose) (HPC)
  T/C: 94 % of control
endpoint: median survival time, dose: 200.0 mg/kg/injection, schedule: Q01DX001 (ip), vehicle: Klucel (hydroxypropylcellulose) (HPC)
  T/C: 96 % of control
endpoint: median survival time, dose: 200.0 mg/kg/injection, schedule: Q01DX001 (oral), vehicle: Klucel (hydroxypropylcellulose) (HPC)
  T/C: 106 % of control
endpoint: median survival time, dose: 200.0 mg/kg/injection, schedule: Q01DX009 (ip), vehicle: Klucel (hydroxypropylcellulose) (HPC)
  T/C: 102 % of control
endpoint: median survival time, dose: 200.0 mg/kg/injection, schedule: Q01DX009 (oral), vehicle: Klucel (hydroxypropylcellulose) (HPC)
  T/C: 113 % of control
endpoint: median survival time, dose: 200.0 mg/kg/injection, schedule: Q04DX003 (ip), vehicle: Klucel (hydroxypropylcellulose) (HPC)
  T/C: 101 % of control
endpoint: median survival time, dose: 400.0 mg/kg/injection, schedule: Q01DX001 (ip), vehicle: Klucel (hydroxypropylcellulose) (HPC)
  T/C: 96 % of control
endpoint: median survival time, dose: 400.0 mg/kg/injection, schedule: Q01DX001 (oral), vehicle: Klucel (hydroxypropylcellulose) (HPC)
  T/C: 110 % of control
endpoint: median survival time, dose: 400.0 mg/kg/injection, schedule: Q01DX009 (ip), vehicle: Klucel (hydroxypropylcellulose) (HPC)
  T/C: 97 % of control
endpoint: median survival time, dose: 400.0 mg/kg/injection, schedule: Q01DX009 (oral), vehicle: Klucel (hydroxypropylcellulose) (HPC)
  T/C: 112 % of control
endpoint: median survival time, dose: 400.0 mg/kg/injection, schedule: Q04DX003 (ip), vehicle: Klucel (hydroxypropylcellulose) (HPC)
  T/C: 94 % of control

## N#C[S-].N#C[S-].N#C[S-].N#C[S-].[Co]
endpoint: mean survival time, dose: 5.0 mg/kg/injection, schedule: Q01DX001 (ip), vehicle: saline
  T/C: 96 % of control
endpoint: mean survival time, dose: 10.0 mg/kg/injection, schedule: Q01DX001 (ip), vehicle: saline
  T/C: 104 % of control
endpoint: mean survival time, dose: 20.0 mg/kg/injection, schedule: Q01DX001 (ip), vehicle: saline
  T/C: 106 % of control

## NC(=O)NCC(=O)O
endpoint: mean survival time, dose: 50.0 mg/kg/injection, schedule: Q01DX001 (ip), vehicle: Klucel (hydroxypropylcellulose) (HPC)
  T/C: 96 % of control
[4]
  T/C: 91 % of control
[5]
  T/C: 100 % of control
endpoint: mean survival time, dose: 100.0 mg/kg/injection, schedule: Q01DX009 (ip), vehicle: Klucel (hydroxypropylcellulose) (HPC)
  T/C: 100 % of control
[6]
  T/C: 100 % of control
endpoint: mean survival time, dose: 200.0 mg/kg/injection, schedule: Q01DX009 (ip), vehicle: Klucel (hydroxypropylcellulose) (HPC)
  T/C: 96 % of control
[7]
  T/C: 94 % of control

## COc1cccc(CC(=O)NCCc2ccc(OC)c(OC)c2)c1
endpoint: mean survival time, dose: 100.0 mg/kg/injection, schedule: Q01DX009 (ip), vehicle: saline with Tween-80
  T/C: 92 % of control
[8]
  T/C: 92 % of control
endpoint: mean survival time, dose: 200.0 mg/kg/injection, schedule: Q01DX009 (ip), vehicle: saline with Tween-80
  T/C: 95 % of control
[9]
  T/C: 94 % of control
endpoint: mean survival time, dose: 400.0 mg/kg/injection, schedule: Q01DX009 (ip), vehicle: saline with Tween-80
  T/C: 90 % of control
[10]
  T/C: 91 % of control

## O=C(NCCCN1CC1)C(=O)NCCCN1CC1
endpoint: mean survival time, dose: 1.5 mg/kg/injection, schedule: Q04DX003 (ip), vehicle: Klucel (hydroxypropylcellulose) (HPC)
  T/C: 121 % of control
endpoint: mean survival time, dose: 2.3 mg/kg/injection, schedule: Q04DX003 (ip), vehicle: Klucel (hydroxypropylcellulose) (HPC)
  T/C: 110 % of control
endpoint: mean survival time, dose: 3.12 mg/kg/injection, schedule: Q04DX003 (ip), vehicle: Klucel (hydroxypropylcellulose) (HPC)
  T/C: 112 % of control
endpoint: mean survival time, dose: 5.3 mg/kg/injection, schedule: Q04DX003 (ip), vehicle: Klucel (hydroxypropylcellulose) (HPC)
  T/C: 166 % of control
endpoint: mean survival time, dose: 8.0 mg/kg/injection, schedule: Q04DX003 (ip), vehicle: Klucel (hydroxypropylcellulose) (HPC)
  T/C: 173 % of control
endpoint: mean survival time, dose: 12.0 mg/kg/injection, schedule: Q04DX003 (ip), vehicle: Klucel (hydroxypropylcellulose) (HPC)
  T/C: 215 % of control
endpoint: mean survival time, dose: 12.5 mg/kg/injection, schedule: Q04DX003 (ip), vehicle: Klucel (hydroxypropylcellulose) (HPC)
  T/C: 180 % of control
endpoint: mean survival time, dose: 18.0 mg/kg/injection, schedule: Q04DX003 (ip), vehicle: Klucel (hydroxypropylcellulose) (HPC)
  T/C: 183 % of control

## N#Cc1nc(CSc2ccc(Cl)cc2)cnc1N
[5]
  T/C: 95 % of control
[6]
  T/C: 92 % of control
[7]
  T/C: 89 % of control

## CCCS(=O)(=O)c1ccc(C)cc1
[11]
  T/C: 98 % of control
[1]
  T/C: 94 % of control
endpoint: mean survival time, dose: 100.0 mg/kg/injection, schedule: Q04DX003 (ip), vehicle: acetone
  T/C: 100 % of control
[12]
  T/C: 98 % of control
[2]
  T/C: 93 % of control
endpoint: mean survival time, dose: 200.0 mg/kg/injection, schedule: Q04DX003 (ip), vehicle: acetone
  T/C: 102 % of control
[13]
  T/C: 107 % of control
[3]
  T/C: 93 % of control
endpoint: mean survival time, dose: 400.0 mg/kg/injection, schedule: Q04DX003 (ip), vehicle: acetone
  T/C: 100 % of control

## C=CCc1ccc(OCC(N)=O)c(OC)c1
[8]
  T/C: 107 % of control
[9]
  T/C: 107 % of control
[10]
  T/C: 109 % of control

## CCCCCC(O)C(O)CC(O)C(O)CCCCCCCC(=O)O (configuration not stated)
[11]
  T/C: 89 % of control
[12]
  T/C: 105 % of control
[13]
  T/C: 96 % of control

## O=C(O)c1cccc2c1C(=O)c1cc(Cl)ccc1-2
endpoint: mean survival time, dose: 75.0 mg/kg/injection, schedule: Q01DX001 (ip), vehicle: carboxymethylcellulose (CMC)
  T/C: 96 % of control
endpoint: mean survival time, dose: 150.0 mg/kg/injection, schedule: Q01DX001 (ip), vehicle: carboxymethylcellulose (CMC)
  T/C: 102 % of control

## CC1(C)COC(c2ccc3c(c2)OCO3)OC1
endpoint: mean survival time, dose: 100.0 mg/kg/injection, schedule: Q01DX001 (ip), vehicle: carboxymethylcellulose (CMC)
  T/C: 96 % of control
endpoint: mean survival time, dose: 200.0 mg/kg/injection, schedule: Q01DX001 (ip), vehicle: carboxymethylcellulose (CMC)
  T/C: 97 % of control
endpoint: mean survival time, dose: 400.0 mg/kg/injection, schedule: Q01DX001 (ip), vehicle: carboxymethylcellulose (CMC)
  T/C: 94 % of control

## CC1=CC(=Nc2ccc(N(CCCl)CCCl)cc2)C=CC1=O
[4]
  T/C: 110 % of control

## O=S(=O)(O)c1ccc2c(ccc3ccccc32)c1
endpoint: mean survival time, dose: 75.0 mg/kg/injection, schedule: Q01DX001 (ip), vehicle: saline
  T/C: 96 % of control

## NC(=O)/C=C\C(=O)O (tested in a mixture with another compound)
endpoint: mean survival time, dose: 31.25 mg/kg/injection, schedule: Q#A X Z (ip), vehicle: carboxymethylcellulose (CMC)
  T/C: 106 % of control
endpoint: mean survival time, dose: 62.5 mg/kg/injection, schedule: Q#A X Z (ip), vehicle: carboxymethylcellulose (CMC)
  T/C: 110 % of control
endpoint: mean survival time, dose: 125.0 mg/kg/injection, schedule: Q#A X Z (ip), vehicle: carboxymethylcellulose (CMC)
  T/C: 118 % of control
endpoint: mean survival time, dose: 250.0 mg/kg/injection, schedule: Q#A X Z (ip), vehicle: carboxymethylcellulose (CMC)
  T/C: 108 % of control

Source: PubChem BioAssay AID248 (DTP/NCI, 2004)
